# Assay results reported in patent US10300140B2, “Sur-binding proteins against ERBB3” (I2 PHARMACEUTICALS, INC., priority 2012, dated 2019).
# Test system: SKBR3 and BT474 cells
# Experiment: Enhancement of MK-2206 in SKBR3 and BT474 proliferation
# Type: cell-based, human
# Details: 0.125 or 0.375 nM NRG; single agent
# Protocol: The ability of the SgGs to enhance AKT inhibition in unstimulated or NRG-stimulated SKBR3 cells was compared. An AKT inhibitor, MK-2206, was tested against the ErbB2 overexpressing cell lines SKBR3 (13I, 13J) and BT474 (13K, 13L). The indicated amounts of MK-2206 were applied to the cells and they were allowed to proliferate in complete medium containing 10% fetal bovine serum for 6 days (13I, 13K, 13L) or 3 days (13J). Cell content was measured using Cell Titer-Glo® (Promega).
smiles,measurement,value
NC1(c2ccc(-c3nc4ccn5c(=O)[nH]nc5c4cc3-c3ccccc3)cc2)CCC1 [MK-2206],ability to inhibit cell proliferation when cells stimulated with NRG,dramatically reduced
